Test results: patent US20110015119A1, “NOVEL SEMI-SYNTHETIC GLYCOPEPTIDES AS ANTIBACTERIAL AGENTS” (LEAD THERAPEUTICS, INC., priority 2009, published 2011)
Converted amounts (≈) assume the structure as drawn. Read-outs that look alike come from different tables or passages of the source.

Columns and labels:
Assay type in all cases: cell-based
[1] = system: Enterococcus faecalis 101 (ATCC 29212); experiment: MIC by broth microdilution, EFc 101
Outline: (§1)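 CLSI-recommended broth microdilution; medium Mueller-Hinton broth.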

[2] = system: Staphylococcus epidermidis 831 (MRSE); experiment: MIC by broth microdilution, SE 831; conditions: read-out: MIC SE 831
Outline: as §1

Enterococcus faecium 800 = experiment: MIC by broth microdilution, EFcm 800
Outline: as §1

[3] = system: Enterococcus faecium 752 (VRE, Van A); experiment: MIC by broth microdilution, EFcm 752
Outline: as §1

[4] = system: Staphylococcus aureus 100 (ATCC 29213); experiment: MIC by broth microdilution, SA 100
Outline: as §1

[5] = system: Staphylococcus aureus 2012 (VISA); experiment: MIC by broth microdilution, SA 2012
Outline: as §1

[6] = system: Staphylococcus aureus 757 (MRSA); experiment: MIC by broth microdilution, SA 757; conditions: read-out: MIC SA 757
Outline: as §1

[7] = system: Streptococcus pneumoniae 1195 (ATCC 49619); experiment: MIC by broth microdilution, SPNE 1195
Outline: as §1

[8] = system: Streptococcus pyogenes 712; experiment: MIC by broth microdilution, SPY 712
Outline: as §1

[9] = system: Enterococcus faecalis 848 (VRE, Van A); experiment: MIC by broth microdilution, EFc 848
Outline: as §1

[10] = system: Staphylococcus epidermidis 835; experiment: MIC by broth microdilution, SE 835
Outline: as §1

[11] = Enterococcus faecalis, ATCC29212, read-out: MIC E FC 101, Enterococcus faecalis 101 (ATCC 29212), class symbols
[12] = Staphylococcus epidermidis, MRSE
[13] = Enterococcus faecium, 800, read-out: MIC E FCM 800
[14] = Enterococcus faecium, VRE, read-out: MIC E FCM 752, Enterococcus faecium 752 (VRE, Van A), class symbols
[15] = Staphylococcus aureus, ATCC29213, read-out: MIC SA 100
[16] = Staphylococcus aureus, VISA, read-out: MIC SA 2012, Staphylococcus aureus 2012 (VISA), class symbols
[17] = Streptococcus pneumoniae, ATCC49619, read-out: MIC S PNE 1195
[18] = Streptococcus pyogenes, 712, read-out: MIC S PYO 712
[19] = Enterococcus faecalis, VRE, read-out: MIC E FC 848, Enterococcus faecalis 848 (VRE, Van A), class symbols
[20] = Staphylococcus epidermidis, 835, read-out: MIC SE 835
[21] = ATCC29212, Enterococcus faecalis 101 (ATCC 29212), class symbols, read-out: MIC E FC 101
[22] = Staphylococcus epidermidis 831 (MRSE), class symbols
[23] = Enterococcus faecium 800, class symbols, read-out: MIC E FCM 800
[24] = Enterococcus faecium 752 (VRE, Van A), class symbols, read-out: MIC E FCM 752
[25] = ATCC29213, Staphylococcus aureus 100 (ATCC 29213), class symbols, read-out: MIC SA 100
[26] = Staphylococcus aureus 2012 (VISA), class symbols, read-out: MIC SA 2012
[27] = Staphylococcus aureus 757 (MRSA), class symbols
[28] = ATCC49619, Streptococcus pneumoniae 1195 (ATCC 49619), class symbols, read-out: MIC S PNE 1195
[29] = Streptococcus pyogenes 712, class symbols, read-out: MIC S PYO 712
[30] = Enterococcus faecalis 848 (VRE, Van A), class symbols, read-out: MIC E FC 848
[31] = Staphylococcus epidermidis 835, class symbols, read-out: MIC SE 835

MIC [1, 21] [µg/mL] | MIC [2, 22] [µg/mL] | MIC (Enterococcus faecium 800; [23]) [µg/mL] | MIC [3, 24] [µg/mL] | MIC [4, 25] [µg/mL] | MIC [5, 26] [µg/mL] | MIC [6, 27] [µg/mL] | MIC [7, 28] [µg/mL] | MIC [8, 29] [µg/mL] | Structure (SMILES) | MIC [1, 11] [µg/mL] | MIC [2, 12] [µg/mL] | MIC (Enterococcus faecium 800; [13]) [µg/mL] | MIC [3, 14] [µg/mL] | MIC [4, 15] [µg/mL] | MIC [5, 16] [µg/mL] | MIC ([6]; Staphylococcus aureus, MRSA) [µg/mL] | MIC [7, 17] [µg/mL] | MIC [8, 18] [µg/mL] | MIC [9, 19] [µg/mL] | MIC [10, 20] [µg/mL] | other results
– | – | – | – | – | – | – | – | – | CCCCCOc1ccc(CCNC(=O)Oc2cc(O)c3c(c2)[C@@H](C(=O)O)NC(=O)[C@H]2NC(=O)[C@H](NC(=O)[C@@H]4NC(=O)[C@H](CC(N)=O)NC(=O)[C@H](NC(=O)[C@@H](CC(C)C)NC)[C@H](O)c5ccc(c(Cl)c5)Oc5cc4cc(c5O[C@@H]4O[C@H](CO)[C@@H](O)[C@H](O)[C@H]4O[C@H]4C[C@](C)(N)[C@H](O)[C@H](C)O4)Oc4ccc(cc4Cl)[C@H]2O)c2ccc(O)c-3c2)cc1 (atropisomer, axis not shown) [Compound 356] | 0.01 to 0.5 (≈ 0.00594 to 0.297 µM) | 0.01 to 0.5 (≈ 0.00594 to 0.297 µM) | 0.01 to 0.5 (≈ 0.00594 to 0.297 µM) | 4 to 8 (≈ 2.38 to 4.75 µM) | 0.01 to 0.5 (≈ 0.00594 to 0.297 µM) | 1 to 2 (≈ 0.594 to 1.19 µM) | 0.01 to 0.5 (≈ 0.00594 to 0.297 µM) | 0.01 to 0.5 (≈ 0.00594 to 0.297 µM) | 0.01 to 0.5 (≈ 0.00594 to 0.297 µM) | > 16 | 0.01 to 0.5 (≈ 0.00594 to 0.297 µM) | –
0.01 to 0.5 (≈ 0.00547 to 0.274 µM) | 0.01 to 0.5 (≈ 0.00547 to 0.274 µM) | 0.01 to 0.5 (≈ 0.00547 to 0.274 µM) | 1 to 2 (≈ 0.547 to 1.09 µM) | 0.01 to 0.5 (≈ 0.00547 to 0.274 µM) | 0.01 to 0.5 (≈ 0.00547 to 0.274 µM) | 0.01 to 0.5 (≈ 0.00547 to 0.274 µM) | 0.01 to 0.5 (≈ 0.00547 to 0.274 µM) | 0.01 to 0.5 (≈ 0.00547 to 0.274 µM) | CCCCCCc1ccc(S(=O)(=O)NCCCCCCNCc2c(O)cc3c(c2O)-c2cc(ccc2O)[C@H]2NC(=O)[C@@H]4NC(=O)[C@H](CC(N)=O)NC(=O)[C@H](NC(=O)[C@@H](CC(C)C)NC)[C@H](O)c5ccc(c(Cl)c5)Oc5cc4cc(c5O[C@@H]4O[C@H](CO)[C@@H](O)[C@H](O)[C@H]4O[C@H]4C[C@]5(C)NC(=O)O[C@@H]5[C@H](C)O4)Oc4ccc(cc4Cl)[C@@H](O)[C@H](NC2=O)C(=O)N[C@@H]3C(=O)O)cc1 (atropisomer, axis not shown) [Compound 305] | – | – | – | – | – | – | – | – | – | – | – | MIC [9, 30]: 8 to 16 µg/mL (≈ 4.38 to 8.75 µM); MIC [10, 31]: 0.01 to 0.5 µg/mL (≈ 0.00547 to 0.274 µM)
– | – | – | – | – | – | – | – | – | CN[C@H](CC(C)C)C(=O)N[C@H]1C(=O)N[C@@H](CC(N)=O)C(=O)N[C@H]2C(=O)N[C@H]3C(=O)N[C@H](C(=O)N[C@H](C(=O)O)c4cc(O)cc(O)c4-c4cc3ccc4O)[C@H](O)c3ccc(c(Cl)c3)Oc3cc2cc(c3O[C@@H]2O[C@H](CO)[C@@H](O)[C@H](O)[C@H]2O[C@H]2C[C@](C)(N)[C@H](O)[C@H](C)O2)Oc2ccc(cc2Cl)[C@H]1O [Vancomycin, vancomycin, reference compound] | – | 2 (≈ 1.38 µM) | 1 (≈ 0.69 µM) | – | 1 (≈ 0.69 µM) | – | 1 (≈ 0.69 µM) | 0.25 (≈ 0.173 µM) | 0.5 (≈ 0.345 µM) | – | 2 (≈ 1.38 µM) | MIC E FC 101 ([1]; Enterococcus faecalis 101 (ATCC 29212), numeric, comparison): 4 µg/mL (≈ 2.76 µM); MIC ([1]; Enterococcus faecalis, ATCC29212, read-out: MIC E FC 101, Enterococcus faecalis 101 (ATCC 29212), numeric, comparison): 2 µg/mL (≈ 1.38 µM); MIC ([3]; Enterococcus faecium, VRE, read-out: MIC E FCM 752, Enterococcus faecium 752 (VRE, Van A), numeric, comparison): > 64 µg/mL; MIC SA 2012 ([5]; Staphylococcus aureus 2012 (VISA), numeric, comparison): 8 µg/mL (≈ 5.52 µM); MIC ([5]; Staphylococcus aureus, VISA, read-out: MIC SA 2012, Staphylococcus aureus 2012 (VISA), numeric, comparison): 16 µg/mL (≈ 11 µM); MIC ([9]; Enterococcus faecalis, VRE, read-out: MIC E FC 848, Enterococcus faecalis 848 (VRE, Van A), numeric, comparison): > 64 µg/mL
– | – | – | – | – | – | – | – | – | CCCCOc1ccc(CCNC(=O)Oc2cc(O)c3c(c2)[C@@H](C(=O)O)NC(=O)[C@H]2NC(=O)[C@H](NC(=O)[C@@H]4NC(=O)[C@H](CC(N)=O)NC(=O)[C@H](NC(=O)[C@@H](CC(C)C)NC)[C@H](O)c5ccc(c(Cl)c5)Oc5cc4cc(c5O[C@@H]4O[C@H](CO)[C@@H](O)[C@H](O)[C@H]4O[C@H]4C[C@](C)(N)[C@H](O)[C@H](C)O4)Oc4ccc(cc4Cl)[C@H]2O)c2ccc(O)c-3c2)cc1 (atropisomer, axis not shown) [Compound 351] | 0.5 to 1 (≈ 0.3 to 0.599 µM) | 0.5 to 1 (≈ 0.3 to 0.599 µM) | 0.01 to 0.5 (≈ 0.00599 to 0.3 µM) | 8 to 16 (≈ 4.79 to 9.59 µM) | 0.01 to 0.5 (≈ 0.00599 to 0.3 µM) | 4 to 8 (≈ 2.4 to 4.79 µM) | 0.01 to 0.5 (≈ 0.00599 to 0.3 µM) | 0.01 to 0.5 (≈ 0.00599 to 0.3 µM) | 0.01 to 0.5 (≈ 0.00599 to 0.3 µM) | > 16 | 0.5 to 1 (≈ 0.3 to 0.599 µM) | –
0.01 to 0.5 (≈ 0.00533 to 0.267 µM) | 0.01 to 0.5 (≈ 0.00533 to 0.267 µM) | 0.01 to 0.5 (≈ 0.00533 to 0.267 µM) | 4 to 8 (≈ 2.13 to 4.27 µM) | 0.01 to 0.5 (≈ 0.00533 to 0.267 µM) | 0.01 to 0.5 (≈ 0.00533 to 0.267 µM) | 0.01 to 0.5 (≈ 0.00533 to 0.267 µM) | 0.01 to 0.5 (≈ 0.00533 to 0.267 µM) | 0.01 to 0.5 (≈ 0.00533 to 0.267 µM) | CCCCCOc1ccc(S(=O)(=O)NCCCCCCNCc2c(O)cc3c(c2O)-c2cc(ccc2O)[C@H]2NC(=O)[C@@H]4NC(=O)[C@H](CC(N)=O)NC(=O)[C@H](NC(=O)[C@@H](CC(C)C)NC)[C@H](O)c5ccc(c(Cl)c5)Oc5cc4cc(c5O[C@@H]4O[C@H](CO)[C@@H](O)[C@H](O)[C@H]4O[C@H]4C[C@](C)(NC(=O)[C@@H](C)N)[C@H](O)[C@H](C)O4)Oc4ccc(cc4Cl)[C@@H](O)[C@H](NC2=O)C(=O)N[C@@H]3C(=O)O)cc1 (atropisomer, axis not shown) [Compound 357] | – | – | – | – | – | – | – | – | – | – | – | MIC [9, 30]: > 16 µg/mL; MIC [10, 31]: 0.01 to 0.5 µg/mL (≈ 0.00533 to 0.267 µM)
